Laboratory results from ChEMBL document CHEMBL1135136, “Carbonic anhydrase inhibitors. Preparation of potent sulfonamides inhibitors incorporating bile acid tails” (Bioorg Med Chem Lett, 2002).
Where “and” joins values, the source holds several entries; their conditions need not be identical. Equal values may be shown once.

Experiments:
Carbonic anhydrase 2 = Carbonic anhydrase 2 (Homo sapiens, UniProt P00918)
Description: Inhibitory activity against human recombinant carbonic anhydrase II (CA2)

Carbonic anhydrase 4 = biological target: T1, Carbonic anhydrase 4 (Bos taurus, UniProt Q95323)
T1 sequence (Q95323 whole entry): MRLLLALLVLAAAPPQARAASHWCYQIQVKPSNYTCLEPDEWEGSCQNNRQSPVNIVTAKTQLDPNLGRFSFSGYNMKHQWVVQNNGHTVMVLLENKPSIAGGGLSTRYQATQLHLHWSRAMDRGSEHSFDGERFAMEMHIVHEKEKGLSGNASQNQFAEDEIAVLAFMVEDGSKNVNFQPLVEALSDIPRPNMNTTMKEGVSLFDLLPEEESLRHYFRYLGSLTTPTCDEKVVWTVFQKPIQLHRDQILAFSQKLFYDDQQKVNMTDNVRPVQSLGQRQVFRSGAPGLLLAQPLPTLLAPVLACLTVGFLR
Description: Inhibitory activity against bovine carbonic anhydrase IV (CA4), obtained from bovine lung microsomes

Carbonic anhydrase 1 = Carbonic anhydrase 1 (Homo sapiens, UniProt P00915)
Chain of Carbonic anhydrase 1 (P00915 whole entry): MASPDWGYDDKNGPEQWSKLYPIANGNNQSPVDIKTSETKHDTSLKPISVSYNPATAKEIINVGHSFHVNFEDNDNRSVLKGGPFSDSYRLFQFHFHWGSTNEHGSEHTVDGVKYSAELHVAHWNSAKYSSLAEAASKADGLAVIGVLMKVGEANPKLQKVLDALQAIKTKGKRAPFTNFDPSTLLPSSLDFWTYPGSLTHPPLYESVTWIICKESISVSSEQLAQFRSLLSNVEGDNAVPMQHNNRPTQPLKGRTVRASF
Description: Inhibitory activity against human recombinant carbonic anhydrase I (CA1)

Oryctolagus cuniculus [1] = species: Oryctolagus cuniculus
Description: (§1) Tested for level of sulfonamide in red blood cells of albino rabbits at 120 min post-administration of 50 mg/kg sulfonamides

Oryctolagus cuniculus [2] = species: Oryctolagus cuniculus; remark: listed apart in the source
Description: as §1

Oryctolagus cuniculus [3] = species: Oryctolagus cuniculus; remark: listed apart in the source
Description: Tested for level of sulfonamide in red blood cells of albino rabbits at 60 min post-administration of 50 mg/kg sulfonamides

Compound `C[C@H](CCC(=O)Nc1nnc(S(N)(=O)=O)s1)[C@H]1CC[C@H]2[C@@H]3C(=O)C[C@@H]4CC(=O)CC[C@]4(C)[C@H]3CC(=O)[C@]12C` has a Ki (Carbonic anhydrase 2) of 0.5 nM, a Ki (Carbonic anhydrase 4) of 9 nM and a Ki (Carbonic anhydrase 1) of 41 nM. The Level (Oryctolagus cuniculus [1]) was 151 µM, the Level (Oryctolagus cuniculus [2]) was 159 µM and the Level (Oryctolagus cuniculus [3]) was 155 µM and 162 µM.

For `C[C@H](CCC(=O)Oc1ccc2nc(S(N)(=O)=O)sc2c1)[C@H]1CC[C@H]2[C@@H]3C(=O)C[C@@H]4CC(=O)CC[C@]4(C)[C@H]3CC(=O)[C@]12C`, the Ki (Carbonic anhydrase 2) was 0.6 nM, the Ki (Carbonic anhydrase 4) was 5 nM and the Ki (Carbonic anhydrase 1) was 33 nM. The Level (Oryctolagus cuniculus [1]) was 158 µM, the Level (Oryctolagus cuniculus [2]) was 163 µM and the Level (Oryctolagus cuniculus [3]) was 156 µM and 159 µM.

`C[C@H](CCC(=O)Nc1ccc(S(N)(=O)=O)cc1Br)[C@H]1CC[C@H]2[C@@H]3[C@H](O)C[C@@H]4C[C@H](O)CC[C@]4(C)[C@H]3CC[C@]12C` showed a Ki (Carbonic anhydrase 2) of 34 nM, a Ki (Carbonic anhydrase 4) of 53 nM and a Ki (Carbonic anhydrase 1) of 617 nM.

`C[C@H](CCC(=O)Nc1ccc(S(N)(=O)=O)cc1F)[C@H]1CC[C@H]2[C@@H]3[C@H](O)C[C@@H]4C[C@H](O)CC[C@]4(C)[C@H]3CC[C@]12C` showed a Ki (Carbonic anhydrase 2) of 50 nM, a Ki (Carbonic anhydrase 4) of 128 nM and a Ki (Carbonic anhydrase 1) of 1050 nM.

`C[C@H](CCC(=O)NCc1ccc(S(N)(=O)=O)cc1)[C@H]1CC[C@H]2[C@@H]3CC[C@@H]4C[C@H](O)CC[C@]4(C)[C@H]3C[C@H](O)[C@]12C` gave a Ki (Carbonic anhydrase 2) of 80 nM, a Ki (Carbonic anhydrase 4) of 233 nM and a Ki (Carbonic anhydrase 1) of 1710 nM.

Work on `C[C@H](CCC(=O)Oc1ccc2nc(S(N)(=O)=O)sc2c1)[C@H]1CC[C@H]2[C@@H]3CC[C@@H]4C[C@H](O)CC[C@]4(C)[C@H]3C[C@H](O)[C@]12C` yielded a Ki (Carbonic anhydrase 2) of 4.8 nM, a Ki (Carbonic anhydrase 4) of 9 nM and a Ki (Carbonic anhydrase 1) of 39 nM.

Compound `C[C@H](CCC(=O)Nc1ccc2nc(S(N)(=O)=O)sc2c1)[C@H]1CC[C@H]2[C@@H]3[C@H](O)C[C@@H]4C[C@H](O)CC[C@]4(C)[C@H]3C[C@H](O)[C@]12C` has a Ki (Carbonic anhydrase 2) of 5 nM, a Ki (Carbonic anhydrase 4) of 10 nM and a Ki (Carbonic anhydrase 1) of 35 nM.

`C[C@H](CCC(=O)/N=c1\sc(S(N)(=O)=O)nn1C)[C@H]1CC[C@H]2[C@@H]3CC[C@@H]4C[C@H](O)CC[C@]4(C)[C@H]3C[C@H](O)[C@]12C` was tested, and the Ki (Carbonic anhydrase 2) was 11 nM, the Ki (Carbonic anhydrase 4) was 63 nM and the Ki (Carbonic anhydrase 1) was 240 nM.

Work on `C[C@H](CCC(=O)OCCOc1ccc2nc(S(N)(=O)=O)sc2c1)[C@H]1CC[C@H]2[C@@H]3C(=O)C[C@@H]4CC(=O)CC[C@]4(C)[C@H]3CC(=O)[C@]12C` yielded a Ki (Carbonic anhydrase 2) of 0.8 nM, a Ki (Carbonic anhydrase 4) of 6 nM and a Ki (Carbonic anhydrase 1) of 30 nM.

Work on `C[C@H](CCC(=O)Nc1ccc(S(N)(=O)=O)cc1I)[C@H]1CC[C@H]2[C@@H]3CC[C@@H]4C[C@H](O)CC[C@]4(C)[C@H]3C[C@H](O)[C@]12C` yielded a Ki (Carbonic anhydrase 2) of 47 nM, a Ki (Carbonic anhydrase 4) of 110 nM and a Ki (Carbonic anhydrase 1) of 415 nM.

With `C[C@H](CCC(=O)OCCOc1ccc2nc(S(N)(=O)=O)sc2c1)[C@H]1CC[C@H]2[C@@H]3CC[C@@H]4C[C@H](O)CC[C@]4(C)[C@H]3C[C@H](O)[C@]12C` the Ki (Carbonic anhydrase 2) was 4.1 nM, the Ki (Carbonic anhydrase 4) was 8 nM and the Ki (Carbonic anhydrase 1) was 37 nM.

`C[C@H](CCC(=O)/N=c1\sc(S(N)(=O)=O)nn1C)[C@H]1CC[C@H]2[C@@H]3[C@H](O)C[C@@H]4C[C@H](O)CC[C@]4(C)[C@H]3CC[C@]12C` was tested, and the Ki (Carbonic anhydrase 2) was 13 nM, the Ki (Carbonic anhydrase 4) was 100 nM and the Ki (Carbonic anhydrase 1) was 514 nM.

Compound `C[C@H](CCC(=O)Nc1ccc2nc(S(N)(=O)=O)sc2c1)[C@H]1CC[C@H]2[C@@H]3CC[C@@H]4C[C@H](O)CC[C@]4(C)[C@H]3C[C@H](O)[C@]12C` has a Ki (Carbonic anhydrase 2) of 6.5 nM, a Ki (Carbonic anhydrase 4) of 12 nM and a Ki (Carbonic anhydrase 1) of 56 nM.

`C[C@H](CCC(=O)NNc1ccc(S(N)(=O)=O)cc1)[C@H]1CC[C@H]2[C@@H]3[C@@H](O)C[C@@H]4C[C@H](O)CC[C@]4(C)[C@H]3CC[C@]12C` gave a Ki (Carbonic anhydrase 2) of 240 nM, a Ki (Carbonic anhydrase 4) of 615 nM and a Ki (Carbonic anhydrase 1) of 12000 nM.

`C[C@H](CCC(=O)/N=c1/sc(S(N)(=O)=O)nn1C)[C@H]1CC[C@H]2[C@@H]3[C@H](O)C[C@@H]4C[C@H](O)CC[C@]4(C)[C@H]3C[C@H](O)[C@]12C` was tested, and the Ki (Carbonic anhydrase 2) was 12 nM, the Ki (Carbonic anhydrase 4) was 115 nM and the Ki (Carbonic anhydrase 1) was 700 nM.
